The numbers were not newly measured in patent US6071923A, “Retinoyloxy aryl-substituted alkylene butyrates useful for the treatment of cancer and other proliferative diseases” (Bar-Ilan University, priority 1997, dated 2000), which cites them from elsewhere.

Where “and” joins values, the source holds several entries; their conditions need not be identical. Identical values can stand only once. Like-named read-outs stand apart in the source and are kept apart here.

The series relates to HL-60 cells.
The mark [1] stands for this setting: HL-60 human promyelocytic cell line, agent alone, read-out: ED50, induction of differentiation of HL-60 cells, agent alone.

For `CCCC(=O)O` [BA, Butyric acid], for the setting “HL-60 cells, BA ED50 alone versus with about 28 nM RA”, the “dose reduction index value” is on record as “about 6 fold”. The EC50 reads like this: (HL-60 cells, BA combined with about 28 nM RA, read-out: ED50 value for BA in combination with RA) around 75 µM; under setting [1], 444 µM and ~400 µM.

Regarding `CC1=C(/C=C/C(C)=C/C=C/C(C)=C/C(=O)O)C(C)(C)CCC1` [RA, retinoic acid], the EC50 under setting [1] is 0.13 µM.
